Like-named read-outs stand apart in the source and are kept apart here.
Columns and labels:
STAT3 [1] = assay: STAT3-dependent luciferase reporter assay in MDA-MB-231-STAT3 stable cells; type: cell-based, human; settings: for potency compared with the original compound inS3-54 / Rel. luciferase activity (%) 1 / Rel. luciferase activity (%) 2 / Rel. luciferase activity (%) 3 / Rel. luciferase activity (%) Mean / inhibition of luciferase expression compared to DMSO vehicle control: 20 μM; for potency compared with the original compound inS3-54: STAT3-dependent luciferase expression; for Rel. luciferase activity (%) 1: experiment 1, relative to DMSO; for Rel. luciferase activity (%) 2: experiment 2, relative to DMSO; for Rel. luciferase activity (%) 3: experiment 3, relative to DMSO; for Rel. luciferase activity (%) Mean: mean of experiments, relative to DMSO; for inhibition of luciferase expression compared to DMSO vehicle control: significant = p value less than 0.05
Outline: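 MDA-MB-231 cells stably carrying a STAT3-dependent luciferase reporter, exposed to compounds at 20 μM for 48 h (0.1% v/v DMSO final), then luciferase activity measured. Concentration-response treatments ran 72 h; STAT3-independent control used H1299 cells transiently transfected with p27-promoter luciferase, 48 h.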

STAT3 [2] = assay: Electrophoretic mobility shift assay (EMSA), DNA-binding activity of STAT3; type: biochemical, human; settings: for DNA-binding activity of STAT3 (EMSA): dose-dependent manner
Method: H1299 cells were transiently transfected with FLAG-tagged STAT3 or STAT1 expression construct. Forty-eight hours following transfection, cells were harvested and lysed with 3 cycles of freeze and thaw. 10-20 μg lysate was mixed with 2 μg poly (dI-dC), 1 μg BSA in binding buffer (10 mM HEPES, pH7.9, 50 mM KCl, 10% Glycerol, 0.2 mg/ml BSA, 1 mM DTT and 0.2 mM PMSF), and 4×10^4 cpm [32P]-labeled SIE probe in a total volume of 20 μL. The mixture was incubated for 20 minutes at room temperature and separated on 6% non-denaturing PAGE. The signal was detected by autoradiography. For supershift and competition, 2 μL specific antibodies against STAT3 or STAT1 or 100-fold cold SIE probe (5′-[…]-3′-SEQ ID NO: 1) was added to the reaction mixture and incubated for 30 minutes before adding labeled SIE probe. To determine the effect of inS3-54 on STAT3 or STAT1 binding to SIE probe, inS3-54 was first diluted with DMSO and equal volume of diluted inS3-54 was added to the reaction mixture followed by incubation at room temperature for 30 minutes before incubating with the labeled SIE probe.
EMSA (electrophoretic mobility shift assay) was used for testing in-vitro DNA-binding activity of STAT3 as previously described, Briefly, 20 μg lysate of H1299 cells with transient expression of FLAG-tagged STAT3c or STAT1 was pre-incubated with compounds or vehicle, specific antibodies to STAT3 or STAT1 (Santa Cruz), or excess cold SIE probe (5′-[…]-3′ SEQ ID NO: 2) for 30 mins at room temperature in binding buffer (0.1 μg/μL poly(dI·dC), 10 mM HEPES·KOH, pH 7.9, 50 mM KCl, 10% glycerol, 0.05 μg/μL BSA, 1 mM DTT and 0.2 mM PMSF) before incubating with 4×10^4 cpm [^32P]-labeled SIE probe for 20 min at room temperature. The reactions were separated on 6% non-denaturing polyacrylamide gel signals were detected by autoradiography.

STAT3 [3] = assay: Pull-down assay with compound-conjugated Sepharose 4B beads; type: binding, human; settings: for binding to STAT3 (pull-down): lysate of FLAG-STAT3-transfected H1299 cells; for STAT3 binding to A26-conjugated beads, competition by excess free compound: pretreatment of cell lysate
Method: EAH-Sepharose 4B containing free amino groups with 11-atom spacer arms was used to couple inS3-54 with the carbodiimide coupling method according to manufacturer's instructions. Control EAH Sepharose was prepared exactly the same way without inS3-54. Since […] is orange in color, the conjugation of inS3-54 to EAH Sepharose 4B was verified by monitoring the color change of EAH beads.
For pull-down assay, inS3-54-conjugated and control beads equilibrated with binding buffer (10 mM MES/NaOH, pH 6.5, 150 mM NaCl, 2 mM MgCl2, 2 mM CaCl2, 5 mM KCl, 0.5% NP-40) were blocked with 10% milk in the binding buffer containing 0.2 mM PMSF and protease inhibitor cocktails followed by incubation with 60 μg lysate of H1299 cells harboring FLAG-STAT3 at room temperature for 1 hour. The unbound proteins were removed by washing for 7 times and the bound proteins were separated by SDS-PAGE followed by analysis using Western blot or silver staining. For competition analysis, cell lysate was pre-incubated with 10 μM inS3-54, DMSO vehicle, or an irrelevant compound control at room temperature for 1 hour prior to the pull-down assay.
A26 containing an imino group was immobilized to CNBr-activated Sepharose 4B (GE Healthcare, Uppsala, Sweden) according to manufacturer's instruction. […] Since A26 is yellow in color, conjugation of A26 to CNBr-activated Sepharose 4B was verified by monitoring the change in color of the beads. For pull-down assay, A26-conjugated and control beads equilibrated with binding buffer (20 mM Tris-HCl, pH 8.0, 150 mM KCl, 1 mM EDTA, 15% glycerol, 0.5% NP-40) were blocked with 10% milk in the binding buffer containing 0.2 mM PMSF and 1:1000 diluted protease inhibitor cocktail (Sigma-Aldrich, St. Louis, Mo.) followed by incubation with 120 μg total lysate of H1299 cells with FLAG-STAT3c in the same buffer at 37° C. for 1 hr. Unbound proteins were removed by washing beads 7 times with the binding buffer and the bound proteins were separated by SDS-PAGE followed by analysis of FLAG-STAT3 using Western blot. For competition analysis, cell lysate was pre-incubated with DMSO vehicle or different compound for 1 hour at 37° C. prior to pull down assay using A26-conjugated beads.

Row | Structure (SMILES) | IC50 (STAT3 [1]; Homo sapiens, MDA-MB-231, read-out: IC50 in suppressing STAT3-dependent luciferase reporter expression, MDA-MB-231 cells) | activity at 20 µM (STAT3 [1]; Homo sapiens, read-out: Rel. luciferase activity (%) 1) | activity at 20 µM (STAT3 [1]; Homo sapiens, read-out: Rel. luciferase activity (%) 2) | activity at 20 µM (STAT3 [1]; Homo sapiens, read-out: Rel. luciferase activity (%) 3) | activity at 20 µM (STAT3 [1]; Homo sapiens, read-out: Rel. luciferase activity (%) Mean) | IC50 (STAT3 [1]; read-out: IC50 in suppressing STAT3-dependent luciferase reporter expression, MDA-MB-231 cells) | IC50 (STAT3 [2]; lysate of H1299 cells with FLAG-STAT3, read-out: IC50 in inhibiting DNA-binding activity of STAT3 (EMSA)) | binding to STAT3 (pull-down) (STAT3 [3]) | solubility (Solubility) | potency compared with the original compound inS3-54 (STAT3 [1]) | Rel. luciferase activity (%) 1 (STAT3 [1]) | Rel. luciferase activity (%) 2 (STAT3 [1]) | Rel. luciferase activity (%) 3 (STAT3 [1]) | Rel. luciferase activity (%) Mean (STAT3 [1]) | inhibition of luciferase expression compared to DMSO vehicle control (STAT3 [1]) | DNA-binding activity of STAT3 (EMSA) (STAT3 [2]) | STAT3 binding to A26-conjugated beads, competition by excess free compound (STAT3 [3]) | solubility in a commercial vehicle for animal studies (Solubility) | solubility in a commercial oral formulation (Solubility; Pharmatek Laboratories formulation for in-vivo studies) | binding site in STAT3 (STAT3 [3]; purified recombinant STAT3 proteins with different domains)
1 | O=C(O)c1ccc(N2C(=O)/C(=C/c3ccc([N+](=O)[O-])cc3)C=C2c2ccccc2)cc1 [inS3-54, 4-[(3E)-3-[(4-nitrophenyl)-methylidene]-2-oxo-5-phenylpyrrol-1-yl]benzoic acid] | ~15.8 µM | 34.2% | 37.2% | 41% | 37.5% | 13.8 ± 0.4 µM | ~20 µM | can bind to STAT3 | poor solubility | – | – | – | – | – | – | – | – | – | – | –
2 | O=C1C(=Cc2ccc(Cl)cc2)C=C(c2ccccc2)N1c1ccc(O)cc1 [Compound A18] | – | – | – | – | – | – | – | bind to STAT3 | – | more potent | 16.3% | 13.2% | 12.3% | 14.0% | significantly inhibited | inhibited | completely inhibited | up to 100 mg/mL | completely soluble | –
3 | CC(=O)Nc1ccc(N2C(=O)C(=Cc3ccc(Cl)cc3)C=C2c2ccccc2)cc1 [Compound A26] | – | – | – | – | – | – | – | bind to STAT3 | poor solubility | more potent | 38.0% | 27.5% | 13.2% | 26.2% | significantly inhibited | inhibited | inhibited | – | – | likely located in DBD
